Measurements: US20250163066A1, “PROTACs of MALT1” (TEGID THERAPEUTICS, INC., priority 2022, published 2025)

How the values were obtained:
[1] = tested on: IL-2 MALT1-dependent release in Jurkat cells; experiment: cells; assay type: cell-based; settings: Homo sapiens; Jurkat cells stimulated with antiCD3/antiCD28 for 24 h; IL-2 ELISA; read-out: EC50, IL-2 MALT1-dependent release inhibition
Experimental: Jurkat cells (ATCC, USA) (100,000 cells/well in a 96 well flat-bottom plate (Greiner, #655061) were cultured in RPMI 1640 supplemented with 10% FBS at 37° C., 5% CO2 in a humidified cell culture incubator for 0.5-1 h. Then 10 μl/well 15× compound (or DMSO) was added in duplicates. Cells were incubated with compound in a humidified cell culture incubator for 0.5-1 h. After the incubation, 10 μl/well of 15× human antiCD3 HIT3a antibody (BioLegend) together with 10 μl/well of 15× human antiCD28 antibody (Invitrogen) were added to stimulate Jurkat cells for 24 h. After 24 h of stimulation, supernatants were collected and IL-2 levels in supernatants were assessed using IL-2 ELISA kit (Vector-Best, Russia).

[2] = target: MALT1 (Homo sapiens (Human), UniProt Q9UDY8); experiment: MALT1 enzymatic activity inhibition (fluorescence, Ac-LRSR-AMC substrate); assay type: biochemical; settings: recombinant MALT1 1.5 ng/μl, Ac-LRSR-AMC 1 μM
Sequence of MALT1 (Q9UDY8 whole entry): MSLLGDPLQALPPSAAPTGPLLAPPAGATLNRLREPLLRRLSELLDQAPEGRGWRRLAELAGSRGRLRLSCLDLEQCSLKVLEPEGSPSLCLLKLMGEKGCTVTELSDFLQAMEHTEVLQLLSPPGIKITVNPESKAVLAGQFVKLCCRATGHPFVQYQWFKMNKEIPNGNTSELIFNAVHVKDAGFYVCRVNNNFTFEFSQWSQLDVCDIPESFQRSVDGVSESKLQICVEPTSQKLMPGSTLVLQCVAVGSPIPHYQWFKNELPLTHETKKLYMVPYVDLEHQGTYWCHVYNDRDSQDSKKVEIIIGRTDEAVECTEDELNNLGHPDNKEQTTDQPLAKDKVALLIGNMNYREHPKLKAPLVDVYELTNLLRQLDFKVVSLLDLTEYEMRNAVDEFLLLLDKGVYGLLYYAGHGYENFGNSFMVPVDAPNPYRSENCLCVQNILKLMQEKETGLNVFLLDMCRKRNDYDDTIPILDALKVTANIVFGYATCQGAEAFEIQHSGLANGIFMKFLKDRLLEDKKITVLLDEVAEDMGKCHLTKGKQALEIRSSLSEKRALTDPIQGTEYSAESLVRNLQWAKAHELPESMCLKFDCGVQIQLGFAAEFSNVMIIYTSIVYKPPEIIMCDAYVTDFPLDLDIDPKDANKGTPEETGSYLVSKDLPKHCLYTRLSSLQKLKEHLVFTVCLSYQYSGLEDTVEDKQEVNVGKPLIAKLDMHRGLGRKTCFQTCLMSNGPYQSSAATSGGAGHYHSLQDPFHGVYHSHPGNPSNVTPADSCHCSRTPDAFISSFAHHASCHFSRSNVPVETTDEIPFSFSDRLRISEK
Procedure, shortened: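 Recombinant human MALT1 (1.5 ng/μl final) preincubated 10 min at rt with compounds in 50 mM HEPES pH 7.2-7.4, 100 mM NaCl, 900 mM sodium citrate, 10 mM DTT; 1 μM Ac-LRSR-AMC then added. AMC fluorescence read at start and after 30 min 37 °C plus 30 min rt; difference gives signal, % inhibition fitted to IC50.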

EC50 [1] [nM]	EC50 [2] [µM]	Structure (SMILES)
1000 to 5000	≤ 0.2	Cc1cc(NC(=O)Nc2cnc3ccnn3c2C2CCCC2)cnc1-c1noc(CCCCC(=O)N2CCN(c3ccc4c(c3)CN(C3CCC(=O)NC3=O)C4=O)CC2)n1 (stereo not drawn) [Compound 14, 1-(7-cyclopentylpyrazolo[1,5-a]pyrimidin-6-yl)-3-[6-[5-[5-[4-[2-(2,6-dioxo-3-piperidyl)-1-oxo-isoindolin-5-yl]piperazin-1-yl]-5-oxo-pentyl]-1,2,4-oxadiazol-3-yl]-5-methyl-3-pyridyl]urea]
1000 to 5000	0.2 to 0.5	Cc1cc(NC(=O)Nc2cnc3ccnn3c2C2CCCC2)cnc1-c1noc(CCOCCN2CCN(c3ccc4c(c3)CN(C3CCC(=O)NC3=O)C4=O)CC2)n1 (stereo not drawn) [Compound 16, 1-(7-cyclopentylpyrazolo[1,5-a]pyrimidin-6-yl)-3-[6-[5-[2-[2-[4-[2-(2,6-dioxo-3-piperidyl)-1-oxo-isoindolin-5-yl]piperazin-1-yl]ethoxy]ethyl]-1,2,4-oxadiazol-3-yl]-5-methyl-3-pyridyl]urea]
< 500	≤ 0.2	Cc1cc(NC(=O)Nc2cnc3ccnn3c2C2CCCC2)cnc1-c1noc(CCCCCN2CCN(c3ccc4c(c3)CN(C3CCC(=O)NC3=O)C4=O)CC2)n1 (stereo not drawn) [Compound 17, 1-(7-cyclopentylpyrazolo[1,5-a]pyrimidin-6-yl)-3-[6-[5-[5-[4-[2-(2,6-dioxo-3-piperidyl)-1-oxo-isoindolin-5-yl]piperazin-1-yl]pentyl]-1,2,4-oxadiazol-3-yl]-5-methyl-3-pyridyl]urea]
< 500	≤ 0.2	Cc1cc(NC(=O)Nc2cnc3ccnn3c2C2CCCC2)cnc1-c1noc(CCCN2CCN(c3ccc4c(c3)CN(C3CCC(=O)NC3=O)C4=O)CC2)n1 (stereo not drawn) [Compound 18, 1-(7-cyclopentylpyrazolo[1,5-a]pyrimidin-6-yl)-3-[6-[5-[3-[4-[2-(2,6-dioxo-3-piperidyl)-1-oxo-isoindolin-5-yl]piperazin-1-yl]propyl]-1,2,4-oxadiazol-3-yl]-5-methyl-3-pyridyl]urea]
< 500	0.2 to 0.5	Cc1cc(NC(=O)Nc2cnc3ccnn3c2C2CCCC2)cnc1-c1noc(CCCN2CCN(c3cc4c(cc3F)C(=O)N(C3CCC(=O)NC3=O)C4=O)CC2)n1 (stereo not drawn) [Compound 23, 1-(7-cyclopentylpyrazolo[1,5-a]pyrimidin-6-yl)-3-[6-[5-[3-[4-[2-(2,6-dioxo-3-piperidyl)-6-fluoro-1,3-dioxo-isoindolin-5-yl]piperazin-1-yl]propyl]-1,2,4-oxadiazol-3-yl]-5-methyl-3-pyridyl]urea]
1000 to 5000	0.5 to 1	O=C(CCOCCN1CCN(c2ccc3c(c2)CN(C2CCC(=O)NC2=O)C3=O)CC1)NCCOc1ncc(Cl)cc1NC(=O)Nc1cnc2ccnn2c1C1CCCC1 (stereo not drawn) [Compound 37, N-[2-[[5-chloro-3-[(7-cyclopentylpyrazolo[1,5-a]pyrimidin-6-yl)carbamoylamino]-2-pyridyl]oxy]ethyl]-3-[2-[4-[2-(2,6-dioxo-3-piperidyl)-1-oxo-isoindolin-5-yl]piperazin-1-yl]ethoxy]propanamide]
1000 to 5000	0.2 to 0.5	O=C(CCOCCOCCN1CCN(c2ccc3c(c2)CN(C2CCC(=O)NC2=O)C3=O)CC1)NCCOc1ncc(Cl)cc1NC(=O)Nc1cnc2ccnn2c1C1CCCC1 (stereo not drawn) [Compound 38, N-[2-[[5-chloro-3-[(7-cyclopentylpyrazolo[1,5-a]pyrimidin-6-yl)carbamoylamino]-2-pyridyl]oxy]ethyl]-3-[2-[2-[4-[2-(2,6-dioxo-3-piperidyl)-1-oxo-isoindolin-5-yl]piperazin-1-yl]ethoxy]ethoxy]propanamide]
> 5000	1 to 5	Cc1cc(NC(=O)Nc2cnc3ccnn3c2C2CCCC2)cnc1N1CCN(c2ccc3c(c2)CN(C2CCC(=O)NC2=O)C3=O)CC1 (stereo not drawn) [Compound 54, 1-(7-cyclopentylpyrazolo[1,5-a]pyrimidin-6-yl)-3-[6-[4-[2-(2,6-dioxo-3-piperidyl)-1-oxo-isoindolin-5-yl]piperazin-1-yl]-5-methyl-3-pyridyl]urea]
500 to 1000	≤ 0.2	Cc1cc(NC(=O)Nc2cnc3ccnn3c2C2CCCC2)cnc1-c1noc(CCCCCN2CCN(c3cc4c(cc3F)C(=O)N(C3CCC(=O)NC3=O)C4=O)CC2)n1 (stereo not drawn) [Compound 55, 1-(7-cyclopentylpyrazolo[1,5-a]pyrimidin-6-yl)-3-[6-[5-[5-[4-[2-(2,6-dioxo-3-piperidyl)-6-fluoro-1,3-dioxo-isoindolin-5-yl]piperazin-1-yl]pentyl]-1,2,4-oxadiazol-3-yl]-5-methyl-3-pyridyl]urea]
< 500	≤ 0.2	O=C1CCC(N2Cc3cc(N4CCN(Cc5nc(-c6ncc(NC(=O)Nc7cnc8ccnn8c7C7CCCC7)cc6Cl)no5)CC4)ccc3C2=O)C(=O)N1 (stereo not drawn) [Compound 56, 1-[5-chloro-6-[5-[[4-[2-(2,6-dioxo-3-piperidyl)-1-oxo-isoindolin-5-yl]piperazin-1-yl]methyl]-1,2,4-oxadiazol-3-yl]-3-pyridyl]-3-(7-cyclopentylpyrazolo[1,5-a]pyrimidin-6-yl)urea]
1000 to 5000	≤ 0.2	Cc1cc(NC(=O)Nc2cnc3ccnn3c2C2CCCC2)cnc1-c1noc(CCCCN2CCN(c3cc4c(cc3F)C(=O)N(C3CCC(=O)NC3=O)C4=O)CC2)n1 (stereo not drawn) [Compound 57, 1-(7-cyclopentylpyrazolo[1,5-a]pyrimidin-6-yl)-3-[6-[5-[4-[4-[2-(2,6-dioxo-3-piperidyl)-6-fluoro-1,3-dioxo-isoindolin-5-yl]piperazin-1-yl]butyl]-1,2,4-oxadiazol-3-yl]-5-methyl-3-pyridyl]urea]
500 to 1000	≤ 0.2	O=C1CCC(N2Cc3cc(N4CCN(C(=O)CCCCc5nc(-c6ncc(NC(=O)Nc7cnc8ccnn8c7C7CCCC7)cc6Cl)no5)CC4)ccc3C2=O)C(=O)N1 (stereo not drawn) [Compound 76, 1-[5-chloro-6-[5-[5-[4-[2-(2,6-dioxo-3-piperidyl)-1-oxo-isoindolin-5-yl]piperazin-1-yl]-5-oxo-pentyl]-1,2,4-oxadiazol-3-yl]-3-pyridyl]-3-(7-cyclopentylpyrazolo[1,5-a]pyrimidin-6-yl)urea]
< 500	≤ 0.2	O=C1CCC(N2Cc3cc(N4CCN(CCCCCCc5nc(-c6ncc(NC(=O)Nc7cnc8ccnn8c7C7CCCC7)cc6Cl)no5)CC4)ccc3C2=O)C(=O)N1 (stereo not drawn) [Compound 78, 1-[5-chloro-6-[5-[6-[4-[2-(2,6-dioxo-3-piperidyl)-1-oxo-isoindolin-5-yl]piperazin-1-yl]hexyl]-1,2,4-oxadiazol-3-yl]-3-pyridyl]-3-(7-cyclopentylpyrazolo[1,5-a]pyrimidin-6-yl)urea]
< 500	≤ 0.2	O=C1CCC(N2Cc3cc(N4CCN(CCCCCc5nc(-c6ncc(NC(=O)Nc7cnc8ccnn8c7C7CCCC7)cc6Cl)no5)CC4)ccc3C2=O)C(=O)N1 (stereo not drawn) [Compound 79, 1-[5-chloro-6-[5-[5-[4-[2-(2,6-dioxo-3-piperidyl)-1-oxo-isoindolin-5-yl]piperazin-1-yl]pentyl]-1,2,4-oxadiazol-3-yl]-3-pyridyl]-3-(7-cyclopentylpyrazolo[1,5-a]pyrimidin-6-yl)urea]
1000 to 5000	≤ 0.2	Cc1cc2ncc(NC(=O)Nc3cnc(-c4noc(CCCCCC(=O)N5CCN(c6ccc7c(c6)CN(C6CCC(=O)NC6=O)C7=O)CC5)n4)c(C)c3)c(C3CCCC3)n2n1 (stereo not drawn) [Compound 82, 1-(7-cyclopentyl-2-methyl-pyrazolo[1,5-a]pyrimidin-6-yl)-3-[6-[5-[6-[4-[2-(2,6-dioxo-3-piperidyl)-1-oxo-isoindolin-5-yl]piperazin-1-yl]-6-oxo-hexyl]-1,2,4-oxadiazol-3-yl]-5-methyl-3-pyridyl]urea]
1000 to 5000	≤ 0.2	Cc1cc2ncc(NC(=O)Nc3cnc(-c4noc(CCCCC(=O)N5CCN(c6ccc7c(c6)CN(C6CCC(=O)NC6=O)C7=O)CC5)n4)c(C)c3)c(C3CCCO3)n2n1 (stereo not drawn) [Compound 84, 1-[6-[5-[5-[4-[2-(2,6-dioxo-3-piperidyl)-1-oxo-isoindolin-5-yl]piperazin-1-yl]-5-oxo-pentyl]-1,2,4-oxadiazol-3-yl]-5-methyl-3-pyridyl]-3-(2-methyl-7-tetrahydrofuran-2-yl-pyrazolo[1,5-a]pyrimidin-6-yl)urea]
1000 to 5000	≤ 0.2	Cc1cc(NC(=O)Nc2cnc3ccnn3c2C(C)C)cnc1-c1noc(CCCCC(=O)N2CCN(c3ccc4c(c3)CN(C3CCC(=O)NC3=O)C4=O)CC2)n1 (stereo not drawn) [Compound 86, 1-[6-[5-[5-[4-[2-(2,6-dioxo-3-piperidyl)-1-oxo-isoindolin-5-yl]piperazin-1-yl]-5-oxo-pentyl]-1,2,4-oxadiazol-3-yl]-5-methyl-3-pyridyl]-3-(7-isopropylpyrazolo[1,5-a]pyrimidin-6-yl)urea]
< 500	≤ 0.2	Cc1cc(NC(=O)Nc2cnc3ccnn3c2C(C)C)cnc1-c1noc(CCCCCN2CCN(c3ccc4c(c3)CN(C3CCC(=O)NC3=O)C4=O)CC2)n1 (stereo not drawn) [Compound 87, 1-[6-[5-[5-[4-[2-(2,6-dioxo-3-piperidyl)-1-oxo-isoindolin-5-yl]piperazin-1-yl]pentyl]-1,2,4-oxadiazol-3-yl]-5-methyl-3-pyridyl]-3-(7-isopropylpyrazolo[1,5-a]pyrimidin-6-yl)urea]
